Test results: article PMC9231138, “Dihydrotanshinone I Enhances Cell Adhesion and Inhibits Cell Migration in Osteosarcoma U−2 OS Cells through CD44 and Chemokine Signaling” (Molecules, 2022)

Key:
[1] = test system: U−2 OS cells; test: Cell cycle distribution by flow cytometry; assay type: cell-based, human; conditions: 24 h, mean ± SD
Description: The cell cycle is a key regulator of cell survival and the repair signal network. It has direct effects on multiple cell processes, including cell proliferation, DNA repair, apoptosis, and cell migration. Thus, it was further analyzed by flow cytometry. As shown in Table 2 and Figure 5A–E, after treatment with DS−1 at doses of 0, 2.5, 5.0, and 7.5 µM for 24 h, the distribution of the cell cycle was measured and the proportion of the G0/G1 phase was 54.70 ± 2.21%, 61.07 ± 2.04%, 65.20 ± 4.35%, and 65.65 ± 1.83%, respectively. In addition, the proportion of U−2 OS cells at the G0/G1 phase increased with the increase in the DS−1 concentration (Figure 5A–E), implying possible cell cycle arrest at the G0/G1 phase.
Figure 5 DS−1 regulated the cell cycle of U−2 OS cells. (A–D) Cell cycle of U−2 OS cells was retained in the G0/G1 phase. U−2 OS cells were treated with DS−1 at 0, 2.5, 5.0, and 7.5 µM for 24 h, and the cell cycle ratio was measured by flow cytometry; the cell cycle distribution is shown in Table 2. (E) Histogram of cell cycle distribution after U−2 OS cells were treated with DS−1. (F) Heatmap of the expression of genes relating to cell cycle in the transcriptome results. (G–K) In U−2 OS cells treated with DS−1 at concentrations of 0, 2.5, 5.0, and 7.5 μM, RNA was extracted and analyzed by RT-PCR, and the changes in CDK2, cyclin D1, cyclin E1, and p21 mRNA are presented in the histogram. (L) Cyclin D1 and cyclin E1 protein relative expression was analyzed by Western blot. Values are the average of three independent experiments, * p < 0.05, ** p < 0.01, *** p < 0.005. TEXT PRINTED IN THE PICTURE: (A) DS-1: G1(54.88%) (0 μM); S(19.57%) (0 μM); G2(23.84%) (0 μM) | (B) DS-1: G1(60.37%) (2.5 μM); S(18.70%) (2.5 μM); G2(19.44%) (2.5 μM) | (C) DS-1: G1(65.10%) (5.0 μM); S(16.87%) (5.0 μM); G2(16.41%) (5.0 μM) | (D) DS-1: G0G1(65.65%) (7.5 μM); S(14.20%) (7.5 μM); G2M(19.60%) (7.5 μM) DOUBTS OF THE COPYIST ABOUT THIS PICTURE: The label DS-1 is printed only in panel L ("DS-1(μM)"); panels A-D print only the concentration, no substance label / Panel A (0 μM) is the untreated state; its values are given with the 0 μM heading as condition / All gate percentages in panels A-D are printed very small and blurred; 3, 5, 6, 8 and 9 cannot be told apart with certainty / A, G1: 54.88% or 54.89% / 54.68% / A, S: 19.57% or 19.67% / A, G2: 23.84% or 23.64% / B, G1: 60.37% or 60.31% / 80.37% / B, S: 18.70% or 16.70% / B, G2: 19.44% or 18.44% / C, G1: 65.10% or 65.16% / 63.10% / C, S: 16.87% or 16.67% / 18.87% / C, G2: 16.41% or 18.41% / D, G0G1: 65.65% or 65.85% / 66.65% / D, S: 14.20% or 14.26% / D, G2M: 19.60% or 19.80% / 19.66%

[2] = test system: IL6; test: RT-PCR IL6 mRNA in U−2 OS cells; assay type: cell-based, human; conditions: 24 h
Description: Total RNA within cells was extracted by the RNAeasy™ Animal Long RNA Isolation Kit with Spin Column (Shanghai, Beyotime); the concentrations and OD260/OD280 and OD230/OD260 values were measured by NanoDrop. Five micrograms of RNA was used for reverse transcription; each sample was diluted to 16 μL, and 4 μL of synthesized premix solution (5×) was added, then the mixtures were placed in a 42 °C water bath for 10 min, then an 80 °C water bath for 10 min to deactivate reverse transcriptase. After reverse transcription, each sample was diluted to 140 μL. PCR amplification was carried out by the ABI700 real-time PCR system, and the amplification reaction was detected with a SYBR probe. After PCR, actin and GAPDH were used as internal references, and the relative standard curve method (2^−ΔΔcT) determined the relative expression of mRNA.

## Cc1cccc2c3c(ccc12)C1=C(C(=O)C3=O)[C@@H](C)CO1 [DS−1, 15,16-Dihydrotanshinone I]
[1]; DS−1 2.5 µM
  proportion of cells in G0/G1 phase: 61.07 ± 2.04%
  proportion of cells in G2/M phase: 18.65 ± 3.50
  proportion of cells in S phase: 20.10 ± 2.07
[1]; DS−1 5.0 µM
  proportion of cells in G0/G1 phase: 65.20 ± 4.35%
  proportion of cells in G2/M phase: 14.92 ± 4.67
  proportion of cells in S phase: 19.55 ± 3.08
[1]; DS−1 7.5 µM
  proportion of cells in G0/G1 phase: 65.65 ± 1.83%
  proportion of cells in G2/M phase: 19.60 ± 1.40
  proportion of cells in S phase: 14.20 ± 0.40
[2]; DS−1 2.5 µM
  IL6 mRNA, fold: 0.81 ± 0.09 fold
[2]; DS−1 5.0 µM
  IL6 mRNA, fold: 0.51 ± 0.07 fold
[2]; DS−1 7.5 µM
  IL6 mRNA, fold: 0.42 ± 0.12 fold
